{
  "source": "patent US20090175934A1",
  "about": "“Extended Release Pharmaceutical Formulation of Venlafaxine and Method of Manufacturing the Same” (Jubilant Organosys Ltd., priority 2006, published 2009)",
  "origin": "cited, not measured here",
  "key": {"[1]": {"settings": "compressed tablets, therapeutic dosing"}, "patients": {"tested_on": "patients", "settings": "plural daily dosing regimen"}},
  "note": "Structures can show the parent of a compound that is named as a salt.",
  "data": [
    {"smiles": "COc1ccc(C(CN(C)C)C2(O)CCCCC2)cc1", "note": "(stereo not drawn) [Venlafaxine hydrochloride]", "values": [
      {"measurement": "time until sub-therapeutic plasma levels are approached following administration", "setting": "[1]", "result": "about twelve hours"},
      {"measurement": "patients experiencing nausea", "setting": "patients", "result": "about forty five percent"},
      {"measurement": "patients in whom vomiting occurs", "setting": "patients", "result": "about seventeen percent"}
    ]}
  ]
}
